Results published in the NIST ThermoML archive (doi:10.1021/acs.jced.8b00888).
Numbers after ± are expanded uncertainties.

Columns and labels:
[1] = Molar enthalpy of transition or fusion; conditions: Crystal; DSC
[2] = Crystal; DTA

Molar enthalpy of transition or fusion [1]: 3.92 ± 0.406 kcal/mol
Normal melting temperature [2]: 85.40 ± 1.1 °C
Structure (SMILES): Cc1nc(C)c(C)nc1C [tetramethylpyrazine]
